Assay results taken from US12371454B2, “Cyclic peptide compound having Kras inhibitory action” (priority 2019, dated 2025).
Positions of bridges follow the written chain, without caps; N, C: chain ends. Non-standard residues stand in square brackets, D forms with d. Residues, ends and D or L forms follow the SMILES beside them. *: point of attachment. hPhe(3-Cl-4-CF3) = N[C@@H](CCc1ccc(C(F)(F)F)c(Cl)c1)C(=O)O; NEtPhe(4-Me) = CCN[C@@H](Cc1ccc(C)cc1)C(=O)O; NMeAbu(4,4,4-F3) = CN[C@@H](CC(F)(F)F)C(=O)O; NMePhe(4-Me) = CN[C@@H](Cc1ccc(C)cc1)C(=O)O; Abu(4,4,4-F3) = N[C@@H](CC(F)(F)F)C(=O)O; NMeAla(cPent) = CN[C@@H](CC1CCCC1)C(=O)O; NMeGly(cPent) = CN[C@H](C(=O)O)C1CCCC1; NMeCha = CN[C@@H](CC1CCCCC1)C(=O)O; NMehLeu = CN[C@@H](CCC(C)C)C(=O)O; NMeAhp(2) = CCCCC[C@H](NC)C(=O)O; NMeCba = CN[C@@H](CC1CCC1)C(=O)O; NMeChg = CN[C@H](C(=O)O)C1CCCCC1; NMeD = CN[C@@H](CC(=O)O)C(=O)O; NMeL = CN[C@@H](CC(C)C)C(=O)O; NMeNle = CCCC[C@H](NC)C(=O)O; NMeV = CN[C@H](C(=O)O)C(C)C; d(β3hA) = C[C@@H](N)CC(=O)O; NMeS = CN[C@@H](CO)C(=O)O; NMeA = CN[C@@H](C)C(=O)O; Piperidide = C1CCN(*)CC1; Pyrrolidide = C1CCN(*)C1; Ac5c = NC1(C(=O)O)CCCC1; Aze = O=C(O)[C@@H]1CCN1; Cyclopropyl = C1CC1*; Sar = CNCC(=O)O

Experiments:
[1] = system: Human pancreatic cancer cell line AsPC-1; assay: Measurement of AsPC-1 cell growth inhibition (AsPC-1 CGI); type: cell-based; settings: 96 h
Outline: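 AsPC-1 cells in 15% FBS RPMI-1640 were exposed to test compound for 96 hours at 37° C, with CellTiter-Glo as endpoint.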

[2] = target: T1, Kras and SOS1 (biotin-tagged human Kras loaded with GDP, His-tagged human SOS1) (Homo sapiens, UniProt P01116, G12D); assay: Protein-protein interaction inhibition between Kras and SOS1 (KrasGl2D-SOS PPI) using AlphaScreen; type: binding; settings: AlphaScreen; biotin-tagged human Kras loaded with GDP, His-tagged human SOS1; read-out: KRAS G12D-SOS PPI IC50
T1 construct: made in house; host or cells: E. coli (stated for Kras only)
T1 sequence (P01116 1-188 isoform P01116-2 G12D): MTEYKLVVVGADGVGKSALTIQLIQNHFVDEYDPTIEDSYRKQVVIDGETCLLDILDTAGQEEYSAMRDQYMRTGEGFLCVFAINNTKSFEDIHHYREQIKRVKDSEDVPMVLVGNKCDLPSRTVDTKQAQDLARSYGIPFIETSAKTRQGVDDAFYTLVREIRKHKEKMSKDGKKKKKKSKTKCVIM
Outline: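 Binding between SOS1 and Kras is detected as bead-proximity luminescence: illuminate Ni-conjugated donors (680 nm), collect 520-620 nm emission from streptavidin-conjugated acceptors; Kras carries biotin and GDP loaded after purification, SOS1 carries a His tag.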

Structure (SMILES) | IC50 [1] [µM] | IC50 [2] [µM]
CC[C@H](C)[C@@H]1NC(=O)[C@H](CC(F)(F)F)N(C)C(=O)C[C@@H](C(=O)N2CCCCC2)N(C)C(=O)[C@H](C(C)C)N(C)C(=O)C2(CCCC2)NC(=O)[C@@H]2CCCN2C(=O)[C@H](CCc2ccc(C(F)(F)F)c(Cl)c2)NC(=O)CN(C)C(=O)[C@H](CC2CCCCC2)N(C)C(=O)[C@@H]2CCN2C(=O)[C@H](C)N(C)C1=O [Compound 1704] ([NMeAbu(4,4,4-F3)]I[NMeA][Aze][NMeCha][Sar][hPhe(3-Cl-4-CF3)]P[Ac5c][NMeV][NMeD]-Piperidide; lactam N-11) | 0.1 to 0.5 | 0.006
CC[C@H](C)[C@@H]1NC(=O)[C@H](CC(C)C)N(C)C(=O)C[C@@H](C(=O)N2CCCCC2)N(C)C(=O)[C@H](C(C)C)N(C)C(=O)C2(CCCC2)NC(=O)[C@@H]2CCCN2C(=O)[C@H](CCc2ccc(C(F)(F)F)c(Cl)c2)NC(=O)CN(C)C(=O)[C@H](CCC(C)C)N(C)C(=O)[C@@H]2CCN2C(=O)[C@H](C)N(C)C1=O [Compound 1709] ([NMeL]I[NMeA][Aze][NMehLeu][Sar][hPhe(3-Cl-4-CF3)]P[Ac5c][NMeV][NMeD]-Piperidide; lactam N-11) | 0.1 to 0.5 | 0.01
CC[C@H](C)[C@@H]1NC(=O)[C@H](CC(C)C)N(C)C(=O)C[C@@H](C(=O)N2CCCC2)N(C)C(=O)[C@H](C(C)C)N(C)C(=O)C2(CCCC2)NC(=O)[C@@H]2CCCN2C(=O)[C@H](CCc2ccc(C(F)(F)F)c(Cl)c2)NC(=O)CN(C)C(=O)[C@H](CC2CCCCC2)N(C)C(=O)CN(C)C(=O)CN(C)C1=O [Compound 1711] ([NMeL]I[Sar][Sar][NMeCha][Sar][hPhe(3-Cl-4-CF3)]P[Ac5c][NMeV][NMeD]-Pyrrolidide; lactam N-11) | 0.1 to 0.5 | 0.00078
CC[C@H](C)[C@@H]1NC(=O)[C@H](CO)N(C)C(=O)C[C@@H](C(=O)N2CCCCC2)N(C)C(=O)[C@H](C2CCCCC2)N(C)C(=O)C2(CCCC2)NC(=O)[C@@H]2CCCN2C(=O)[C@H](CCc2ccc(C(F)(F)F)c(Cl)c2)NC(=O)CN(C)C(=O)[C@H](CC2CCCCC2)N(C)C(=O)CN(C)C(=O)CN(C)C1=O [Compound 1713] ([NMeS]I[Sar][Sar][NMeCha][Sar][hPhe(3-Cl-4-CF3)]P[Ac5c][NMeChg][NMeD]-Piperidide; lactam N-11) | 0.1 to 0.5 | 0.00049
CC[C@H](C)[C@@H]1NC(=O)[C@H](CC(C)C)N(C)C(=O)C[C@@H](C)NC(=O)[C@H](C2CCCC2)N(C)C(=O)C2(CCCC2)NC(=O)[C@@H]2CCCN2C(=O)[C@H](CCc2ccc(C(F)(F)F)c(Cl)c2)NC(=O)CN(C)C(=O)[C@H](Cc2ccc(C)cc2)N(CC)C(=O)[C@@H]2CCN2C(=O)[C@H](C)N(C)C1=O [Compound 1714] (cyclo([Ac5c][NMeGly(cPent)][d(β3hA)][NMeL]I[NMeA][Aze][NEtPhe(4-Me)][Sar][hPhe(3-Cl-4-CF3)]P)) | 0.05 to 0.1 | 0.0023
CC[C@H](C)[C@@H]1NC(=O)[C@H](CC(C)C)N(C)C(=O)C[C@@H](C(=O)N2CCCCC2)N(C)C(=O)[C@H](C(C)C)N(C)C(=O)C2(CCCC2)NC(=O)[C@@H]2CCCN2C(=O)[C@H](CCc2ccc(C(F)(F)F)c(Cl)c2)NC(=O)CN(C)C(=O)[C@H](CC2CCC2)N(C)C(=O)[C@@H]2CCN2C(=O)[C@H](C)N(C)C1=O [Compound 1716] ([NMeL]I[NMeA][Aze][NMeCba][Sar][hPhe(3-Cl-4-CF3)]P[Ac5c][NMeV][NMeD]-Piperidide; lactam N-11) | 0.1 to 0.5 | 0.0079
CC[C@H](C)[C@@H]1NC(=O)[C@H](C)N(C)C(=O)C[C@@H](C(=O)N2CCCC2)N(C)C(=O)[C@H](C2CCCCC2)N(C)C(=O)C2(CCCC2)NC(=O)[C@@H]2CCCN2C(=O)[C@H](CCc2ccc(C(F)(F)F)c(Cl)c2)NC(=O)CN(C)C(=O)[C@H](CC2CCCCC2)N(C)C(=O)CN(C)C(=O)CN(C)C1=O [Compound 1720] ([NMeA]I[Sar][Sar][NMeCha][Sar][hPhe(3-Cl-4-CF3)]P[Ac5c][NMeChg][NMeD]-Pyrrolidide; lactam N-11) | 0.05 to 0.1 | 0.00058
CC[C@H](C)[C@@H]1NC(=O)[C@H](CC(C)C)N(C)C(=O)C[C@@H](C(=O)N2CCCC2)N(C)C(=O)[C@H](C2CCCCC2)N(C)C(=O)C2(CCCC2)NC(=O)[C@@H]2CCCN2C(=O)[C@H](CCc2ccc(C(F)(F)F)c(Cl)c2)NC(=O)CN(C)C(=O)[C@H](CC2CCCCC2)N(C)C(=O)[C@@H]2CCN2C(=O)[C@H](C)N(C)C1=O [Compound 1726] ([NMeL]I[NMeA][Aze][NMeCha][Sar][hPhe(3-Cl-4-CF3)]P[Ac5c][NMeChg][NMeD]-Pyrrolidide; lactam N-11) | 0.02 to 0.05 | 0.00068
CC[C@H](C)[C@@H]1NC(=O)[C@H](CC(C)C)N(C)C(=O)C[C@@H](C(=O)N(C)C)N(C)C(=O)[C@H](C(C)C)N(C)C(=O)C2(CCCC2)NC(=O)[C@@H]2CCCN2C(=O)[C@H](CCc2ccc(C(F)(F)F)c(Cl)c2)NC(=O)CN(C)C(=O)[C@H](CC2CCCCC2)N(C)C(=O)[C@@H]2CCN2C(=O)[C@H](C)N(C)C1=O [Compound 1728] ([NMeL]I[NMeA][Aze][NMeCha][Sar][hPhe(3-Cl-4-CF3)]P[Ac5c][NMeV][NMeD]-NMe2; lactam N-11) | 0.05 to 0.1 | 0.0012
CC[C@H](C)[C@@H]1NC(=O)[C@H](CC(C)C)N(C)C(=O)C[C@@H](C(=O)N(C)C)N(C)C(=O)[C@H](C2CCCCC2)N(C)C(=O)C2(CCCC2)NC(=O)[C@@H]2CCCN2C(=O)[C@H](CCc2ccc(C(F)(F)F)c(Cl)c2)NC(=O)CN(C)C(=O)[C@H](CC2CCCCC2)N(C)C(=O)CN(C)C(=O)CN(C)C1=O [Compound 1729] ([NMeL]I[Sar][Sar][NMeCha][Sar][hPhe(3-Cl-4-CF3)]P[Ac5c][NMeChg][NMeD]-NMe2; lactam N-11) | 0.02 to 0.05 | 0.00044
CC[C@H](C)[C@@H]1NC(=O)[C@H](CC(C)C)N(C)C(=O)C[C@@H](C(=O)N2CCCCC2)N(C)C(=O)[C@H](C2CCCCC2)N(C)C(=O)C2(CCCC2)NC(=O)[C@@H]2CCCN2C(=O)[C@H](CCc2ccc(C(F)(F)F)c(Cl)c2)NC(=O)CN(C)C(=O)[C@H](COC2CC2)N(C)C(=O)CN(C)C(=O)CN(C)C1=O [Compound 1731] ([NMeL]I[Sar][Sar][NMeS](Cyclopropyl)[Sar][hPhe(3-Cl-4-CF3)]P[Ac5c][NMeChg][NMeD]-Piperidide; lactam N-11) | 0.1 to 0.5 | 0.0019
CCCCC[C@H]1C(=O)N[C@@H]([C@@H](C)CC)C(=O)N(C)CC(=O)N(C)CC(=O)N(C)[C@@H](CC2CCCCC2)C(=O)N(C)CC(=O)N[C@@H](CCc2ccc(C(F)(F)F)c(Cl)c2)C(=O)N2CCC[C@H]2C(=O)NC2(CCCC2)C(=O)N(C)[C@@H](C2CCCCC2)C(=O)N(C)[C@H](C(=O)N2CCCCC2)CC(=O)N1C [Compound 1735] ([NMeAhp(2)]I[Sar][Sar][NMeCha][Sar][hPhe(3-Cl-4-CF3)]P[Ac5c][NMeChg][NMeD]-Piperidide; lactam N-11) | 0.05 to 0.1 | 0.0011
CC[C@H](C)[C@@H]1NC(=O)[C@H](CC(C)C)N(C)C(=O)C[C@@H](C(=O)N2CCCCC2)N(C)C(=O)[C@H](C(C)C)N(C)C(=O)C2(CCCC2)NC(=O)[C@@H]2CCCN2C(=O)[C@H](CCc2ccc(C(F)(F)F)c(Cl)c2)NC(=O)CN(C)C(=O)[C@H](COC2CC2)N(C)C(=O)[C@@H]2CCN2C(=O)[C@H](C)N(C)C1=O [Compound 1738] ([NMeL]I[NMeA][Aze][NMeS](Cyclopropyl)[Sar][hPhe(3-Cl-4-CF3)]P[Ac5c][NMeV][NMeD]-Piperidide; lactam N-11) | 0.1 to 0.5 | 0.011
CC[C@H](C)[C@@H]1NC(=O)[C@H](CC(C)C)N(C)C(=O)C[C@@H](C(=O)N2CCCCC2)N(C)C(=O)[C@H](C(C)C)N(C)C(=O)C2(CCCC2)NC(=O)[C@@H]2CCCN2C(=O)[C@H](CCc2ccc(C(F)(F)F)c(Cl)c2)NC(=O)CN(C)C(=O)[C@H](CC2CCCC2)N(C)C(=O)[C@@H]2CCN2C(=O)[C@H](C)N(C)C1=O [Compound 1739] ([NMeL]I[NMeA][Aze][NMeAla(cPent)][Sar][hPhe(3-Cl-4-CF3)]P[Ac5c][NMeV][NMeD]-Piperidide; lactam N-11) | 0.1 to 0.5 | 0.0047
CCCC[C@H]1C(=O)N[C@@H]([C@@H](C)CC)C(=O)N(C)CC(=O)N(C)CC(=O)N(C)[C@@H](CC2CCCCC2)C(=O)N(C)CC(=O)N[C@@H](CCc2ccc(C(F)(F)F)c(Cl)c2)C(=O)N2CCC[C@H]2C(=O)NC2(CCCC2)C(=O)N(C)[C@@H](C2CCCCC2)C(=O)N(C)[C@H](C(=O)N2CCCCC2)CC(=O)N1C [Compound 1740] ([NMeNle]I[Sar][Sar][NMeCha][Sar][hPhe(3-Cl-4-CF3)]P[Ac5c][NMeChg][NMeD]-Piperidide; lactam N-11) | 0.05 to 0.1 | 0.00079
CC(C)C[C@H]1C(=O)N[C@@H](CC(F)(F)F)C(=O)N(C)CC(=O)N(C)CC(=O)N(C)[C@@H](CC2CCCCC2)C(=O)N(C)CC(=O)N[C@@H](CCc2ccc(C(F)(F)F)c(Cl)c2)C(=O)N2CCC[C@H]2C(=O)NC2(CCCC2)C(=O)N(C)[C@@H](C2CCCCC2)C(=O)N(C)[C@H](C(=O)N2CCCCC2)CC(=O)N1C [Compound 1744] ([NMeL][Abu(4,4,4-F3)][Sar][Sar][NMeCha][Sar][hPhe(3-Cl-4-CF3)]P[Ac5c][NMeChg][NMeD]-Piperidide; lactam N-11) | 0.1 to 0.5 | 0.004
CC[C@H](C)[C@@H]1NC(=O)[C@H](CC(C)C)N(C)C(=O)C[C@@H](C(=O)N2CCCC2)N(C)C(=O)[C@H](C(C)C)N(C)C(=O)C2(CCCC2)NC(=O)[C@@H]2CCCN2C(=O)[C@H](CCc2ccc(C(F)(F)F)c(Cl)c2)NC(=O)CN(C)C(=O)[C@H](Cc2ccc(C)cc2)N(C)C(=O)CN(C)C(=O)CN(C)C1=O [Compound 1749] ([NMeL]I[Sar][Sar][NMePhe(4-Me)][Sar][hPhe(3-Cl-4-CF3)]P[Ac5c][NMeV][NMeD]-Pyrrolidide; lactam N-11) | 0.1 to 0.5 | 0.00074
